In ChEMBL document CHEMBL1781978, “A highly conjugated dihydroxylated C28 steroid from a myxobacterium” (J Nat Prod, 2011):

Tested on: SW480
Test: Cytotoxicity against human SW480 cells by MTT assay
Type: functional, cell-based

CC(C)[C@@H](C)/C=C/[C@@H](C)[C@H]1CCC2=C3C=CC4=CC(=O)CC[C@]4(C)[C@@]3(O)[C@H](O)C[C@@]21C
IC50: 10 µM
